Reference: patent US20240141375A1, “LENTIVIRUS FOR GENERATING CELLS EXPRESSING ANTI-CD19 CHIMERIC ANTIGEN RECEPTOR” (Umoja Biopharma, Inc., priority 2021, published 2024)

Tests used:
Bead-activated PBMCs = test: Payload gene order: 2A detection, rapamycin enrichment and expansion of CAR-T cells; format: cell-based; conditions: by day 22; 10 nM rapamycin
Experimental: The aim of this study was to determine the effect of order on the detectability and function of a lentiviral payload comprised of the following functional elements: Frb-RACR, and αCD19-CAR. The Frb-RACR element provides a selective advantage to cells when rapamycin is added to the culture. The αCD19-CAR element provides targeting of T cells to CD19+ target cells. The two elements together create CAR-T cells that enrich with rapamycin and are cytotoxic to CD19+ target cells. Two payload designs evaluated differ only in the order in which elements are expressed in the polycistronic transcript. This study tested functional aspects of the payloads in both orientations to see if differences in expression were affecting 1) payload detection by flow cytometry (2A antibody), 2) CAR-T cell rapamycin response, and 3) CAR-T cell CD19+ cell cytotoxicity.
Two payload designs evaluated: • 1. MND promoter—FRB-P2A-RACRβ-P2A-RACRγ-P2A-CAR (SEQ ID NO: 81) • 2. MND promoter—CAR-P2A-FRB-P2A-RACRβ-P2A-RACRγ (SEQ ID NO: 61)
Expansion of CAR-T cells was measured using cell counts, culture volume, and flow cytometry population frequencies to estimate total CAR-T cells. Gating requirements were different for d15 and 22; however, in each case, un-transduced cells were used as a biological negative control. […]

Nalm-6 GFP FFLUC cells = test: Nalm-6 systemic tumor model in PBMC-humanized mice; design: species or system MHC I/II KO NSG female mice; conditions: mouse, in vivo
Experimental: The aim of this study is to evaluate the efficacy of UB-VV100 and the effects of rapamycin dosing after UB-VV100 administration in a Nalm-6 systemic tumor model in PBMC-humanized mice. The UB-VV100 Viral particles comprised SEQ ID NOs: 121, 128, 131, and 132.
Lentivirus was prepared using adherent production and tiered on 293T cells by flow cytometry. Nalm-6 GFP FFLUC cells expressing luciferase and GFP were obtained from the Jensen lab, SCRI, cultured by Umoja Biopharma, and delivered in PBS for injection.
24 MHC I/II KO NSG female mice were used in the study. On study day −5 (D-5) mice were implanted with 0.5 million Nalm-6 cells via retroorbital injection.
At study day −1 mice where humanized with 10 million PBMC via IP injection. The same day all mice were imaged with an IVIS imager 15 minutes after d-Luciferin injection (15 mg/kg) to detect Nalm-6 disease burden. All mice from each tumor group were randomized according to their tumor bioluminescence (Total Flux) levels into 4 cohorts according to the Table 8 below.
At study day 0 mice from groups 3 and 4 were treated IP with 20 million viral particles of UB-VV100 in 500 ul of PBS. […]
Percentage of body weight loss was monitored during the study (FIG. 34B). […] Bone marrow, spleen, peripheral blood and tumor were collected, processed into a single cell suspension, and analyzed by flow cytometry.

unstimulated human PBMCs = test: T cell activation (CD25) in PBMCs after vector addition, flow cytometry; format: cell-based; conditions: 4 days after transduction; VT103 mCherry vectors 5 ul or 25 ul; Blinatumomab 1 ng/ml
Experimental: PBMCs were thawed, resuspended into 10 ml RPMI complete media, and the PBMCs were diluted to 1e6 cells/ml in complete RPMI media. IL-2 was added to a final concentration of 50U/ml. PBMCs were separated into 3× groups of 15 ml each for various stimulations: • Group #1—Blinatumomab added to a final concentration of 1 ng/ml • Group #2-15e6 αCD3/αCD28 Dynabeads added • Group #3—IL-2 only
For each group, 5 ml of stimulation solution was added to 3× wells of Non-TC treated 6 well plate and incubated at 37° C. for 48 hours. Beads were removed from applicable wells, cells were counted and pelleted. Cells were then resuspended in fresh complete RPMI media at 1e6 cells/ml with IL-2 at a final concentration of 50U/ml. 1 ml (1e6 cells) was added to the wells of a Non TC-treated 12 well plate. […]
After 4 days, cells were resuspended with 200 ul into wells in a 96 well V-bottom plate. […] Cells were resuspended in 50 ul of surface antibody cocktail (Anti-CD3-PerCP, Anti-CD19-FITC, Anti-CD56-APC, and Anti-CD25-BV421), incubated for 20 min at 4° C., washed in 200 ul FACS buffer, and resuspended in 100 ul FACS buffer and analyzed by flow cytometry. […]
(§1) Each group was incubated at 37° C. overnight. Beads were removed from applicable wells, cells were counted and pelleted. […]
as §1

| Molecule | expansion of αCD19-CAR-T cells over non-rapamycin treated cells (Bead-activated PBMCs) [fold] | survival (Nalm-6 GFP FFLUC cells) [study day] | CD25 expression on T cells (activation) (unstimulated human PBMCs) |
| --- | --- | --- | --- |
| CO[C@H]1C[C@@H]2CC[C@@H](C)[C@@](O)(O2)C(=O)C(=O)N2CCCC[C@H]2C(=O)O[C@H]([C@H](C)C[C@@H]2CC[C@@H](O)[C@H](OC)C2)CC(=O)[C@H](C)/C=C(\C)[C@@H](O)[C@@H](OC)C(=O)[C@H](C)C[C@H](C)/C=C/C=C/C=C/1C [rapamycin] | 4.3 | ≤ 20 | – |
| Blinatumomab: Bispecific T-cell engager with anti-CD3 moiety, used as PBMC stimulus | – | – | potently activated the T cells |
